Values joined by “and” are separate entries in the source; they are usually repeats but may differ in a detail not shown here. Identical values can stand only once. Counter-ions that a name gives are not always drawn. Values belong to the molecule of their own block, whether it stands above or below them.
How the values were obtained:
Assay type in all cases: biochemical
[1] = molecular target: T1, Recombinant human hexosaminidase A (Homo sapiens, UniProt P06865); test: Action of hexosaminidase A on ASB substrate, UHPLC-MS/MS; conditions: 1 mM ASB substrate, 100 mM ammonium formate pH 5.6, 5 hrs at 37° C.
T1 sequence (P06865 89-529): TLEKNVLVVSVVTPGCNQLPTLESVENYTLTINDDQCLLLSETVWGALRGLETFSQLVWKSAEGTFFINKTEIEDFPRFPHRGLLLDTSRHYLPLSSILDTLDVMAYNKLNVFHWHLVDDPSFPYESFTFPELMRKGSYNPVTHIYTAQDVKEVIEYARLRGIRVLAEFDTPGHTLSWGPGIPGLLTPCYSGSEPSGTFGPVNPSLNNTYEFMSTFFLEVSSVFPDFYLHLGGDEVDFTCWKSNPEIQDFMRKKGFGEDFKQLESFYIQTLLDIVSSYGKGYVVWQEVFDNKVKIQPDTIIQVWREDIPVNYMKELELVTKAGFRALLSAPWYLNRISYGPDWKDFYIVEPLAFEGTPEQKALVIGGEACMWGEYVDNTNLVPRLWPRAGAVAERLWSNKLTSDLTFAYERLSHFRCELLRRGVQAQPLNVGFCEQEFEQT
T1 sequence (P07686 122-556 partner): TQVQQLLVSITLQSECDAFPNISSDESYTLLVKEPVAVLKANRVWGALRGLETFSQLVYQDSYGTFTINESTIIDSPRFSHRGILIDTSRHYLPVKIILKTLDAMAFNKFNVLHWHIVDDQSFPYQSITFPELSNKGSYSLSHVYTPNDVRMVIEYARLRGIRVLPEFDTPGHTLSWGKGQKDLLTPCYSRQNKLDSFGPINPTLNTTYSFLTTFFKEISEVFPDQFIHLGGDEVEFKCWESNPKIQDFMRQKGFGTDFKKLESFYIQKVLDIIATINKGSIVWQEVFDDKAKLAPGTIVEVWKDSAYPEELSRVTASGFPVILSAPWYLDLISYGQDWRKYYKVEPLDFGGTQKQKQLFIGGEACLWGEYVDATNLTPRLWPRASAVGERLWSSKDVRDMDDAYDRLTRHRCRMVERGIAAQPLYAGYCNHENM
Experimental: The mixture includes 1 mM ASB substrate in 100 mM ammonium formate buffer, pH 5.6 containing the indicated amount of hexosaminidase. After incubation for 5 hrs at 37° C., the mixture is analyzed by UHPLC-MS/MS. The aglycone signal is not due to contamination of the substrate with aglycone because no aglycone is seen when hexosaminidase A is omitted. The aglycone is not the result of cleavage of the ASB in the electrospray ionization source of the mass spectrometer because the amount of aglycone increases with increasing hexosaminidase A (FIG. 1), and the UHPLC retention time of the aglycone matches that of an authentic aglycone, and this is different than the retention time of the ASB substrate. Thus, hexosaminidase A acts on the ASB substrate to produce algycone. Because hexosaminidase A acts on ASB substrate to produce algycone, this enzyme cannot be used in a coupled assay of ASB, and furthermore it is important to inhibit hexosaminidase A so as not to generate aglycone directly from the ASB substrate.

arylsulfatase B (ASB) = molecular target: T2, arylsulfatase B (ASB) (Homo sapiens, UniProt P15848); test: ASB (MPS-VI) assay with beta-NGA and Z-PUG-NAc, UHPLC-MS/MS
T2 construct: from tissue; host or cells: dried blood spot (3 mm punch)
Experimental: Having established the action of human hexosaminidase A on the ASB substrate, the ASB assay was developed, using the same approach developed for GALNS, namely adding beta-NGA and Z-PUG-NAc. The experiments were carried out as for the GALNS assays (see Example 10) but with 1 mM ASB substrate replacing the GALNS substrate.
(§1) Experiment 1. A 3 mm punch of a dried blood spot from a random newborn is incubated with 0.03 mL of assay cocktail consisting of 1 mM GALNS substrate in 50 mM ammonium formate pH 4.0 containing 7.5 mM barium acetate, 5.0 mM cerium acetate, 1 mM Z-PUG-NAc, and 0.01 mg of bacterial beta-N-acetylgalactosaminidase. The mixture also contains 0.005 mM internal standard. After 16 hrs at 37° C. with shaking, the mixture is quenched with 0.12 mL of acetonitrile and the sample plate is centrifuged to pellet the precipitate. Supernatant (0.12 mL) is transferred to a new plate, and 0.12 mL of water is added. The plate is placed on the autosampler of the UHPLC-MS/MS instrument (Waters Xevo TQ MS/MS with a Waters Acquity UHPLC system). A portion of the sample (0.01 mL) is injected, and the GALNS product (substrate minus sulfate), the internal standard, and the aglycones derived from the GALNS product and internal standard are quantified by multiple reaction monitoring (MS/MS). Note the internal standard added, like the GALNS product, is converted to its aglycone by the addition of bacterial beta-N-acetylgalactosaminidase.

[2] = molecular target: T3, N-acetylgalactosamine-4-sulfate-sulfatase (MPS-VI enzyme) (Homo sapiens, UniProt P15848); test: MPS-VI enzyme assay with dried blood spot punch, tandem mass spectrometry
T3 construct: from tissue; host or cells: dried blood spot (3 mm punch)
Experimental: The original and alternative MPS-VI substrates were compared in side-by-side enzyme assays as follows: 1 mM substrate, 10 uM internal standard in 30 uL of buffer (100 mM ammonium formate, pH 4.0, 7.5 mM barium(II) acetate, 5.0 mM cerium(III) acetate). A 3 mm punch of a dried blood spot was added, and the mixtures were incubated with shaking for 16 hours at 37 deg C. The reactions were quenched by addition of an aqueous suspension (1:1) of DEAE cellulose (Whatmann DE52) (100 uL), followed by addition of 400 uL of ethyl acetate. The mixture was mixed by up and down pipetting a few times and then centrifuged (10 min at 3000 rpm) to separate the liquid layers and pellet the DE52. A 300 uL portion of the upper ethyl acetate layer was transferred to a new well, and solvent was removed by evaporation with a stream of oil-free air. The residue was taken up in 100 uL of methanol/5 mM aqueous ammonium formate (80/20, v/v) and infused into the tandem mass spectrometer. The barium and cerium salts are present to precipitate free sulfate and phosphate present in the dried blood spot since these anions cause production inhibition of the MPS-VI enzyme. The DE52 is added to trap remaining substrate so only product and internal standard (which are charge neutral) are extracted into ethyl acetate. […]

human hexosaminidase A = molecular target: T4, human hexosaminidase A (Homo sapiens, UniProt P06865+P07686); test: Block of endogenous hexosaminidase A in dried blood spots in the GALNS assay; conditions: 1 mM Z-PUG-NAc in assay cocktail with dried blood spot
T4 construct: from tissue; host or cells: dried blood spot from a random newborn
T4 sequence (P06865 89-529): T1 sequence (P06865 89-529)
T4 sequence (P07686 122-556): T1 sequence (P07686 122-556 partner)
Experimental: as §1

[3] = molecular target: T5, iduronic acid 2-sulfatase (Homo sapiens, UniProt P22304); test: Sulfatase assay for MPS-II with second enzyme alpha-L-iduronidase; conditions: with iduronidase versus without
T5 construct: from tissue; host or cells: dried blood spot (3 mm punch)
T5 sequence (P22304 34-550): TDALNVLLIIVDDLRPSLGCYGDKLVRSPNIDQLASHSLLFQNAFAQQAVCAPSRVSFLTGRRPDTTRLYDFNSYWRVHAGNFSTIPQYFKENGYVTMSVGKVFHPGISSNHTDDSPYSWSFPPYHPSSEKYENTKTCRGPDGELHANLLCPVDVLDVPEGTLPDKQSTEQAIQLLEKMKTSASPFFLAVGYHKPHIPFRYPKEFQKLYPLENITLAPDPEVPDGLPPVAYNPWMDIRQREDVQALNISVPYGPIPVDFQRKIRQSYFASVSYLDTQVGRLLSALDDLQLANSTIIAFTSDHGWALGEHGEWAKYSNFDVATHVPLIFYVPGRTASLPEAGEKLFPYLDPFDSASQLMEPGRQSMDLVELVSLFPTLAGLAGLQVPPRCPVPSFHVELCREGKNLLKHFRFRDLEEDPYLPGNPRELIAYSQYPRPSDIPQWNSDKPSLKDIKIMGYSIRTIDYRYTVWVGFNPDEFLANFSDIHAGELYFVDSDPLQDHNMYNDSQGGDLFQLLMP
Experimental: In the assay, a second enzyme, alpha-L-iduronidase (a glycohydrolase) is added to the assay cocktail, which converts Initial MPS-II Product to Final MPS-II Product by removing the iduronic acid residue leaving the aglycone. The iduronidase can be present in the assay cocktail that is incubated with the dried blood spot, or it can be added after the first incubation with the dried blood spot followed by a second incubation period. The amount of iduronidase added is sufficient to convert all Initial MPS-II Product to Final MPS-II Product. The assay cocktail also contains Initial MPS-II Internal Standard (same as Initial MPS-II Product but, for example, with 5 deuteriums in the benzoyl group), which is converted by iduronidase to Final MPS-II Internal Standard. Both Final MPS-II Product and Final MPS-II Internal Standard are detected by tandem mass spectrometry, which enables the amount of Final MPS-II Product to be quantified. […] The analytes are detected by multiple reaction monitoring.
Thus the assay sensitivity has been improved by about 100-fold. […] With the assay of the invention, this desulfation is of no concern because the product being detected is the aglycone (Final MPS-II Product).

[4] = Expt. 1: 3 mm dried blood spot punch, 1 mM Z-PUG-NAc, 0.01 mg beta-NGA
[5] = Expt. 2: 3 mm filter paper punch (no blood), 1 mM Z-PUG-NAc, 0.01 mg of bacterial enzyme
[6] = Expt. 3: 3 mm dried blood spot punch, 1 mM Z-PUG-NAc, no beta-NGA
[7] = Expt. 4: 3 mm filter paper punch (no blood), nothing added

T2 sequence (P15848 37-533): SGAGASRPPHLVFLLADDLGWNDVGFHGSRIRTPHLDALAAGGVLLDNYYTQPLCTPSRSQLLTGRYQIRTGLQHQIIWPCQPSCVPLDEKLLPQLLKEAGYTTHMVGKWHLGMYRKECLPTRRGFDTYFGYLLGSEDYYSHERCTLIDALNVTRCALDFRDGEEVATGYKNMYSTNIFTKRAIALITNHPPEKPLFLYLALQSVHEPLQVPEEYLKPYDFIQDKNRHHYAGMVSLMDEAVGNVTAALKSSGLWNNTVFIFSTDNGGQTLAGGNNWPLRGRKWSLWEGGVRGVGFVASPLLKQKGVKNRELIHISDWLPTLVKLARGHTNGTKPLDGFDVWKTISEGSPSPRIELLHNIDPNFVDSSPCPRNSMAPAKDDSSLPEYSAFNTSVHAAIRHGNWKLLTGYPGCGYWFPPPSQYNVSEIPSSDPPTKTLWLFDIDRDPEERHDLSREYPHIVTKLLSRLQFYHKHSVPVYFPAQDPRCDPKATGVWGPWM
T3 sequence (P15848 37-533): as above

Molecule: CCCCC(=O)N(CCCCCNC(=O)c1ccccc1)CCC(=O)Nc1ccc(OC2OC(CO)C(OS(=O)(=O)O)C(O)C2NC(C)=O)cc1 (stereo not shown) [ASB substrate]
aglycone release from substrate by hexosaminidase A [1]: acts on the ASB substrate to liberate aglycone
ASB product (substrate without sulfate) peak area (arylsulfatase B (ASB); [4]): 154,000
aglycone peak area (product without sugar) (arylsulfatase B (ASB); [4]): 1,570,000
ASB product (substrate without sulfate) peak area (arylsulfatase B (ASB); [5]): 404
aglycone peak area (product without sugar) (arylsulfatase B (ASB); [5]): 58,300
ASB product (substrate without sulfate) peak area (arylsulfatase B (ASB); [6]): 371,000
aglycone peak area (product without sugar) (arylsulfatase B (ASB); [6]): 39,900
ASB product (substrate without sulfate) peak area (arylsulfatase B (ASB); [7]): 3,340 and 3,430
aglycone peak area (product without sugar) (arylsulfatase B (ASB); [7]): 33,800

Molecule: CCCCC(=O)N(CCCCCNC(=O)c1ccccc1)CCC(=O)Nc1ccc(OC2OC(CO)C(OS(=O)(=O)O)C(O)C2NC(C)=O)cc1 [Alternative MPS-VI, Sodium (2R,3R,4R,5R,6S)-5-acetamido-6(4(3-(N (5-benzamidopentyl)-pentanamido)propanamido)phenoxy)-4-hydroxy-2-(hydroxymethyl)tetrahydro-2H-pyran-3-yl sulfate]
Enzymatic Activity ([2]; 1 mM substrate, 3 mm dried blood spot punch, pH 4.0, 16 hours at 37 deg C): 1.5 umole/hr/L blood
blood-no blood assay ratio ([2]; activity with dried blood spot punch to that with blood-free punch): 77.9

Further lines, results first:

inhibition of hexosaminidase A (human hexosaminidase A): fully block hexosaminidase A
Molecule: CC(=O)N[C@H]1/C(=N/OC(=O)Nc2ccccc2)O[C@H](CO)[C@@H](O)[C@@H]1O [Z-PUG-NAc, (Z)—O-(2-acetamido-2-deoxy-D-glucopyranosylidene)-amino N-phenylcarbamate]

improvement of assay sensitivity by second enzyme [3]: about 100 fold
B1: iduronidase: human alpha-L-iduronidase (a glycohydrolase) obtained by overexpression in mammalian cells, second enzyme (protein, UniProt P35475 28-653, looked up)
Alpha-L-iduronidase: APHLVHVDAARALWPLRRFWRSTGFCPPLPHSQADQYVLSWDQQLNLAYVGAVPHRGIKQVRTHWLLELVTTRGSTGRGLSYNFTHLDGYLDLLRENQLLPGFELMGSASGHFTDFEDKQQVFEWKDLVSSLARRYIGRYGLAHVSKWNFETWNEPDHHDFDNVSMTMQGFLNYYDACSEGLRAASPALRLGGPGDSFHTPPRSPLSWGLLRHCHDGTNFFTGEAGVRLDYISLHRKGARSSISILEQEKVVAQQIRQLFPKFADTPIYNDEADPLVGWSLPQPWRADVTYAAMVVKVIAQHQNLLLANTTSAFPYALLSNDNAFLSYHPHPFAQRTLTARFQVNNTRPPHVQLLRKPVLTAMGLLALLDEEQLWAEVSQAGTVLDSNHTVGVLASAHRPQGPADAWRAAVLIYASDDTRAHPNRSVAVTLRLRGVPPGPGLVYVTRYLDNGLCSPDGEWRRLGRPVFPTAEQFRRMRAAEDPVAAAPRPLPAGGRLTLRPALRLPSLLLVHVCARPEKPPGQVTRLRALPLTQGQLVLVWSDEHVGSKCLWTYEIQFSQDGKAYTPVSRKPSTFNLFVFSPDTGAVSGSYRVRALDYWARPGPFSDPVPYLEVPVPRGPPSPGNP

Source: US10196668B2, “Reagents and methods for screening MPS I, II, IIIA, IIIB, IVA, VI, and VII” (University of Washington through its Center for …, priority 2013, dated 2019)
